Legend:
sham or SCI animals = test: Conditioned Place Preference (CPP), addictive potential; conditions: for CPP to morphine: added to morphine at either dose (1.0 or 2.5 mg/kg), sham or SCI animals
Method: Methods: 55 female, Long-Evans rats were tested for mechanical thresholds prior to receiving a spinal contusion (SCI) or sham surgery. […] Conditioned Place Preference (CPP) to each drug combination was assessed to determine the addictive potential of that specific combination.
Mechanical thresholds were assessed in 3-5 month old female Long-Evans rats before and ˜21 days after a mild, traumatic SCI (contusion model). […] Conditioned place preference was performed under each drug condition (5 days alternating drug/vehicle pairing, with testing on day 6).

SCI animals = test: Mechanical pain thresholds / analgesia in animals with spinal cord injury (contusion model); format: in vivo, Long-Evans rats; conditions: FIG. 2 Panel B
Method: (§1) Methods: 55 female, Long-Evans rats were tested for mechanical thresholds prior to receiving a spinal contusion (SCI) or sham surgery. Mechanical pain thresholds were measured 21-27 days post-surgery under the following conditions: Morphine alone (1.0 or 2.5 mg/kg); Morphine (1.0 or 2.5 mg/kg)+0.1 mg/kg Pramipexole (PRAM; D3R agonist); Morphine (2.5 mg/kg)+0.1 mg/kg SCH23390 (SCH: D1R antagonist); 0.1 mg/kg Pramipexole alone; 0.1 mg/kg SCH23390 alone. Conditioned Place Preference (CPP) to each drug combination was assessed to determine the addictive potential of that specific combination.
(§2) Mechanical thresholds were assessed in 3-5 month old female Long-Evans rats before and ˜21 days after a mild, traumatic SCI (contusion model). Thresholds were re-assessed after i.p. injection of: Morphine 1.0 mg/kg with and without 0.1 mg/kg pramipexole (PRAM) or Morphine 2.5 mg/kg with and without 0.1 mg/kg PRAM. Conditioned place preference was performed under each drug condition (5 days alternating drug/vehicle pairing, with testing on day 6). Western blotting determined expression of D3R, D1R and u-opioid receptor (MOR) in the lumbar spinal cord.

[1] = tested on: rat model of chronic neuropathic pain; test: Pain withdrawal responses in a rat model of chronic neuropathic pain (pilot studies); format: in vivo; conditions: low-dose morphine
sham animals = test: Mechanical pain thresholds / analgesia in sham (healthy control) animals; format: in vivo, Long-Evans rats; conditions: FIG. 2 Panel A, acute treatment
Method: as §1, §2

Structure (SMILES)	CPP to morphine (sham or SCI animals)	analgesia (SCI animals)	modulating pain withdrawal responses / opioid efficacy [1]	analgesia (sham animals)	preference for the drug-paired chamber (sham or SCI animals; FIG. 4)	analgesic effect after long-term application (animals; FIG. 3, long-term application, 2 weeks)	development of morphine tolerance (animals; parallel preliminary studies)
CCCN[C@H]1CCc2nc(N)sc2C1 [PRAM, pramipexole]	Neither PRAM nor SCH exacerbated CPP to morphine	–	–	–	–	–	–
CN1CCc2cc(Cl)c(O)cc2[C@@H](c2ccccc2)C1 [SCH, SCH23390]	Neither PRAM nor SCH exacerbated CPP to morphine	–	–	–	–	–	–
CN1CC[C@]23c4c5ccc(O)c4O[C@H]2[C@@H](O)C=C[C@H]3[C@H]1C5 [morphine]	–	neither morphine nor PRAM have any analgesic effect	became ineffective	improves analgesia significantly	induces preference for the drug-paired chamber	complete loss of analgesic effect after 2 weeks	became tolerant

Source: US12383551B2, “Methods and compositions for maintaining opioid efficacy in the treatment of pain” (East Carolina University, priority 2017, dated 2025)
